Test results as given in PubChem BioAssay AID248 (DTP/NCI, 2004).
“And” between values parts separate entries of the source, which are not always exact repeats. Equal values may be shown once. Toxic doses and inconclusive results are not listed.

Test system: L1210 leukemia ip in BDF1 mice, survival T/C
Experiment: NCI In Vivo Anticancer Drug Screen. Data for tumor model L1210 Leukemia (intraperitoneal) in B6D2F1 (BDF1) mice
Conditions: endpoint: mean survival time, higher = longer survival
Outline: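 Ratio derived from survival: compound-dosed mice over vehicle-dosed mice, all bearing a transplantable tumor.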

[1] = dose: 100.0 mg/kg/injection, schedule: Q04DX003 (ip), vehicle: gum acacia
[2] = dose: 200.0 mg/kg/injection, schedule: Q04DX003 (ip), vehicle: gum acacia
[3] = dose: 400.0 mg/kg/injection, schedule: Q04DX003 (ip), vehicle: gum acacia
[4] = dose: 100.0 mg/kg/injection, schedule: Q01DX009 (ip), vehicle: Klucel (hydroxypropylcellulose) (HPC)
[5] = dose: 200.0 mg/kg/injection, schedule: Q01DX009 (ip), vehicle: Klucel (hydroxypropylcellulose) (HPC)
[6] = dose: 400.0 mg/kg/injection, schedule: Q01DX009 (ip), vehicle: Klucel (hydroxypropylcellulose) (HPC)
[7] = dose: 100.0 mg/kg/injection, schedule: Q01DX001 (ip), vehicle: carboxymethylcellulose (CMC)
[8] = dose: 100.0 mg/kg/injection, schedule: Q01DX009 (ip), vehicle: saline with Tween-80
[9] = dose: 200.0 mg/kg/injection, schedule: Q01DX009 (ip), vehicle: saline with Tween-80
[10] = dose: 100.0 mg/kg/injection, schedule: Q04DX003 (ip), vehicle: saline
[11] = dose: 200.0 mg/kg/injection, schedule: Q01DX009 (ip), vehicle: saline
[12] = dose: 100.0 mg/kg/injection, schedule: Q01DX001 (ip), vehicle: saline
[13] = dose: 200.0 mg/kg/injection, schedule: Q01DX001 (ip), vehicle: saline

CC(C)(C)c1cc(/C=N/NC(=O)CNC(=O)Nc2cccc(C(F)(F)F)c2)cc(C(C)(C)C)c1O
T/C (dose: 100.0 mg/kg/injection, schedule: Q01DX001 (ip), vehicle: gum acacia): 92 % of control and 94 % of control | T/C (dose: 100.0 mg/kg/injection, schedule: Q04DX002 (ip), vehicle: gum acacia): 98 % of control and 90 % of control | T/C [1]: 99 % of control and 87 % of control | T/C (dose: 200.0 mg/kg/injection, schedule: Q01DX001 (ip), vehicle: gum acacia): 94 % of control and 90 % of control | T/C (dose: 200.0 mg/kg/injection, schedule: Q04DX002 (ip), vehicle: gum acacia): 93 % of control | T/C [2]: 92 % of control and 96 % of control | T/C (dose: 400.0 mg/kg/injection, schedule: Q01DX001 (ip), vehicle: gum acacia): 94 % of control and 102 % of control | T/C (dose: 400.0 mg/kg/injection, schedule: Q04DX002 (ip), vehicle: gum acacia): 93 % of control and 87 % of control | T/C [3]: 92 % of control and 89 % of control

CN(C)C(=O)OCC[N+](C)(C)CCCCCCCCCC[N+](C)(C)CCOC(=O)N(C)C
T/C (dose: 0.63 mg/kg/injection, schedule: Q01DX009 (ip), vehicle: saline): 94 % of control | T/C (dose: 1.25 mg/kg/injection, schedule: Q01DX009 (ip), vehicle: saline): 98 % of control | T/C (dose: 2.5 mg/kg/injection, schedule: Q01DX009 (ip), vehicle: saline): 93 % of control | T/C (dose: 5.0 mg/kg/injection, schedule: Q04DX003 (ip), vehicle: saline): 94 % of control

O=C(CC(O)(C(F)(F)F)C(F)(F)F)c1cccnc1
T/C [4]: 98 % of control | T/C (dose: 100.0 mg/kg/injection, schedule: Q04DX003 (ip), vehicle: saline with Tween-80): 101 % of control | T/C [5]: 104 % of control | T/C (dose: 200.0 mg/kg/injection, schedule: Q04DX003 (ip), vehicle: saline with Tween-80): 103 % of control | T/C [6]: 101 % of control | T/C (dose: 400.0 mg/kg/injection, schedule: Q04DX003 (ip), vehicle: saline with Tween-80): 103 % of control

CN(C)C1c2ccccc2-c2ccc(N)cc21 (centres undefined)
T/C [7]: 94 % of control

COc1ccccc1-n1c(O)c(N=Nc2ccccc2C)c(=O)n(-c2ccc(Br)cc2)c1=S
T/C (dose: 37.5 mg/kg/injection, schedule: Q01DX001 (ip), vehicle: Klucel (hydroxypropylcellulose) (HPC)): 94 % of control | T/C (dose: 75.0 mg/kg/injection, schedule: Q01DX001 (ip), vehicle: Klucel (hydroxypropylcellulose) (HPC)): 106 % of control | T/C (dose: 150.0 mg/kg/injection, schedule: Q01DX001 (ip), vehicle: Klucel (hydroxypropylcellulose) (HPC)): 87 % of control

O=C(Nc1ccc(Cl)cc1)Nc1ccccc1Cl
T/C (dose: 100.0 mg/kg/injection, schedule: Q01DX009 (ip), vehicle: gum acacia): 91 % of control | T/C [1]: 100 % of control | T/C (dose: 200.0 mg/kg/injection, schedule: Q01DX009 (ip), vehicle: gum acacia): 87 % of control | T/C [2]: 96 % of control | T/C (dose: 400.0 mg/kg/injection, schedule: Q01DX009 (ip), vehicle: gum acacia): 89 % of control | T/C [3]: 102 % of control

CCCCOCN1C(=O)N(COCCCC)C(=O)C(CC)(c2ccccc2)C1=O
T/C [8]: 97 % of control | T/C [9]: 94 % of control | T/C (dose: 400.0 mg/kg/injection, schedule: Q01DX009 (ip), vehicle: saline with Tween-80): 87 % of control

C=CCCCCCCCC[CH2][Sn]([Cl])([Cl])[Cl]
T/C (dose: 50.0 mg/kg/injection, schedule: Q04DX003 (ip), vehicle: saline): 93 % of control | T/C [10]: 101 % of control

COc1ccc(C(=O)OCc2ccccc2CN2CCOCC2)cc1
T/C (dose: 100.0 mg/kg/injection, schedule: Q04DX002 (ip), vehicle: Klucel (hydroxypropylcellulose) (HPC)): 95 % of control | T/C (dose: 200.0 mg/kg/injection, schedule: Q04DX002 (ip), vehicle: Klucel (hydroxypropylcellulose) (HPC)): 95 % of control | T/C (dose: 400.0 mg/kg/injection, schedule: Q04DX002 (ip), vehicle: Klucel (hydroxypropylcellulose) (HPC)): 95 % of control

CCCCCCC1CC1
T/C (dose: 50.0 mg/kg/injection, schedule: Q01DX009 (ip), vehicle: saline): 94 % of control | T/C (dose: 100.0 mg/kg/injection, schedule: Q01DX009 (ip), vehicle: saline): 102 % of control | T/C [11]: 102 % of control

COc1ccc(CCC(C)=O)cc1
T/C [4]: 96 % of control | T/C (dose: 100.0 mg/kg/injection, schedule: Q04DX003 (ip), vehicle: Klucel (hydroxypropylcellulose) (HPC)): 89 % of control | T/C [5]: 105 % of control | T/C (dose: 200.0 mg/kg/injection, schedule: Q04DX003 (ip), vehicle: Klucel (hydroxypropylcellulose) (HPC)): 102 % of control | T/C [6]: 96 % of control | T/C (dose: 400.0 mg/kg/injection, schedule: Q04DX003 (ip), vehicle: Klucel (hydroxypropylcellulose) (HPC)): 98 % of control

CCOC(=O)C(CC)C(O)c1cccc(OC)c1 (centres undefined)
T/C (dose: 50.0 mg/kg/injection, schedule: Q01DX009 (ip), vehicle: saline with Tween-80): 94 % of control | T/C [8]: 94 % of control | T/C [9]: 94 % of control

O=C(Nc1cccc(C(=O)Nc2ccc(C3=NCCN3)cc2)c1)c1ccc(C2=NCCN2)cc1
T/C (dose: 15.0 mg/kg/injection, schedule: Q01DX Z (ip), vehicle: carboxymethylcellulose (CMC)): 96 % of control | T/C (dose: 15.0 mg/kg/injection, schedule: Q01DX Z (sc), vehicle: saline): 120 % of control | T/C (dose: 30.0 mg/kg/injection, schedule: Q01DX Z (ip), vehicle: carboxymethylcellulose (CMC)): 120 % of control | T/C (dose: 60.0 mg/kg/injection, schedule: Q01DX Z (sc), vehicle: saline): 109 % of control | T/C (dose: 62.5 mg/kg/injection, schedule: Q01DX010 (oral), vehicle: saline): 104 % of control | T/C (dose: 88.0 mg/kg/injection, schedule: Q01DX007 (oral), vehicle: carboxymethylcellulose (CMC)): 101 % of control | T/C (dose: 120.0 mg/kg/injection, schedule: Q01DX Z (ip), vehicle: carboxymethylcellulose (CMC)): 185 % of control | T/C (dose: 120.0 mg/kg/injection, schedule: Q01DX Z (sc), vehicle: saline): 230 % of control | T/C (dose: 125.0 mg/kg/injection, schedule: Q01DX010 (oral), vehicle: saline): 104 % of control | T/C (dose: 175.0 mg/kg/injection, schedule: Q01DX007 (oral), vehicle: carboxymethylcellulose (CMC)): 97 % of control | T/C (dose: 250.0 mg/kg/injection, schedule: Q01DX010 (oral), vehicle: saline): 103 % of control | T/C (dose: 350.0 mg/kg/injection, schedule: Q01DX007 (oral), vehicle: carboxymethylcellulose (CMC)): 105 % of control | T/C (dose: 500.0 mg/kg/injection, schedule: Q01DX010 (oral), vehicle: saline): 106 % of control | T/C (dose: 700.0 mg/kg/injection, schedule: Q01DX007 (oral), vehicle: carboxymethylcellulose (CMC)): 105 % of control

CCCOc1ccc(C2=C(c3ccccc3)C(=O)C(c3ccccc3)=C2c2ccccc2)cc1
T/C [7]: 94 % of control | T/C (dose: 200.0 mg/kg/injection, schedule: Q01DX001 (ip), vehicle: carboxymethylcellulose (CMC)): 100 % of control | T/C (dose: 400.0 mg/kg/injection, schedule: Q01DX001 (ip), vehicle: carboxymethylcellulose (CMC)): 94 % of control

CC(=O)Nc1ncnc(NC(C)=O)c1N=O
T/C [12]: 93 % of control | T/C [13]: 102 % of control

Nc1nc(=O)n(C2OC(CO)C(O)C2O)cc1Cl (centres undefined)
T/C (dose: 200.0 mg/kg/injection, schedule: Q01DX005 (ip), vehicle: saline): 150 % of control | T/C [11]: 160 % of control | T/C (dose: 400.0 mg/kg/injection, schedule: Q01DX009 (ip), vehicle: saline): 176 % of control

CC1(N)COP(=O)(NCc2ccccc2)OC1 (centres undefined)
T/C [12]: 95 % of control | T/C [13]: 103 % of control | T/C (dose: 400.0 mg/kg/injection, schedule: Q01DX001 (ip), vehicle: saline): 103 % of control

COc1cc(C)ccc1C1=CCCC1
T/C (dose: 37.5 mg/kg/injection, schedule: Q01DX009 (ip), vehicle: saline): 116 % of control | T/C (dose: 75.0 mg/kg/injection, schedule: Q01DX001 (ip), vehicle: acetone): 102 % of control | T/C (dose: 75.0 mg/kg/injection, schedule: Q01DX009 (ip), vehicle: saline): 111 % of control | T/C (dose: 150.0 mg/kg/injection, schedule: Q01DX001 (ip), vehicle: acetone): 91 % of control | T/C (dose: 150.0 mg/kg/injection, schedule: Q01DX009 (ip), vehicle: saline): 106 % of control | T/C (dose: 225.0 mg/kg/injection, schedule: Q01DX009 (ip), vehicle: acetone): 86 % of control | T/C (dose: 300.0 mg/kg/injection, schedule: Q01DX001 (ip), vehicle: acetone): 89 % of control

O=C(CCCO)N/N=C\c1ccc([N+](=O)[O-])s1
T/C [10]: 95 % of control | T/C (dose: 200.0 mg/kg/injection, schedule: Q04DX003 (ip), vehicle: saline): 93 % of control | T/C (dose: 400.0 mg/kg/injection, schedule: Q04DX003 (ip), vehicle: saline): 101 % of control
